Laboratory results as given in patent publication US8580769B2, “Treatment of obesity, metabolic syndrome, and diabetes with protein kinase C inhibitors” (The United States of America as represented by the …, priority 2011, dated 2013).

Assays:
FoxO1 = experiment: ser-256 phosphorylation of hepatic FoxO1 in wild type mice after a single ICAPP injection; format: in vivo, mouse; conditions: 1.5 mg/kg ICAPP s.c., basally and in response to insulin
Procedure: Western Analyses: Western analyses were conducted as described (Standaert et al., J. Biol. Chem. 279:24929-24934, 2004; Sajan et al., J. Lipid Res. 50:1133-1145, 2009; Sajan et al., Diabetologia 52:1197-1207, 2009; Farese et al., J. Clin. Invest. 117:2289-2301, 2007), using the following antibodies/antisera for immunodetection after resolution of lysate proteins by SDS-PAGE: rabbit polyclonal anti-IRS-1 antiserum (Upstate Cell Signaling); rabbit polyclonal anti-IRS-2 antiserum (Santa Cruz Technologies); rabbit polyclonal anti-PKC-ζ/λ antiserum (Santa Cruz Biotechnologies); rabbit polyclonal anti-PKC-ζ antiserum (gift of Dr. Todd Sacktor); mouse monoclonal anti-PKC-ι/ζ antibodies (Transduction Laboratories/BD, East Rutherford, N.J.); rabbit polyclonal anti-Akt1/2 antiserum (Upstate Cell Signaling); rabbit polyclonal anti-phospho-serine -473-Akt1/2 antiserum (New England BioLabs, Beverly, Mass.): rabbit polyclonal anti-phospho-threonine-410-[…]/-403-PKC-ι/λ antiserum (Upstate Cell Signaling); rabbit polyclonal anti-phospho-threonine-560-PKC-ζ/-555-PKC-ι/λ antiserum (Invitrogen); and anti-p65/RelA subunit of NFκB (Santa Cruz Biotechnologies). […]
Wild type mice were treated with 1.5 mg/kg ICAPP subcutaneously and after 2-30 hours, the mice were treated with 1 U/kg insulin 15 minutes before euthanasia. aPKC activity was determined as described in Example 1.

PKC-ζ = biological target: T1, PKC-ζ (Homo sapiens, UniProt Q05513); experiment: PKC-ζ inhibition; format: biochemical
T1 construct: purchased Biovision, Mountain View, Calif
T1 sequence (Q05513 1-592): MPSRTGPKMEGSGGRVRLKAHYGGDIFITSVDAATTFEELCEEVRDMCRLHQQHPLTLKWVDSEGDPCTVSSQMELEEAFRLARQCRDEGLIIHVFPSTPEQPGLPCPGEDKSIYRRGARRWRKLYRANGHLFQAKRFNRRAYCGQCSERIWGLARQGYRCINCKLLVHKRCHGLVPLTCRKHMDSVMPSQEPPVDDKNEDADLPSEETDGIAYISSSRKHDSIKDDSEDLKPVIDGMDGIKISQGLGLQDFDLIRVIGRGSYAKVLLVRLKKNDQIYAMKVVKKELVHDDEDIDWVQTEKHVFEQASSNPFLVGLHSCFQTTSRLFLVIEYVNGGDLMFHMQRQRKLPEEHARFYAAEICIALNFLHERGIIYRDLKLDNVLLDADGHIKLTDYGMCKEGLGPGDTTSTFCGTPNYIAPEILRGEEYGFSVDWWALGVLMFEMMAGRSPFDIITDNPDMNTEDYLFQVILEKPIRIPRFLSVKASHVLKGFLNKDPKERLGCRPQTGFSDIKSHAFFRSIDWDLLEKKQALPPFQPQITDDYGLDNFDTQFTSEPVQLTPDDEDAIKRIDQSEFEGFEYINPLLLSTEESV
Procedure: For assays of recombinant PKC-ι and PKC-ζ (10 ng/assay; Biovision, Mountain View, Calif.), […] phosphatidylinositol-3,4,5-(PO4)3 (PIP3; Matreya, Pleasant Gap, Pa.) ±1 ng phosphoinositide-dependent kinase-1 (PDK1; Upstate Cell Signaling) was added to maximally activate and thus better define aPKC activity.

NC(=O)c1ncn([C@@H]2C[C@H](COP(=O)(O)O)[C@@H](O)[C@H]2O)c1N [ICAPP, 1H-imidazole-4-carboxamide, 5-amino-1-[2,3-dihydroxy-4-[(phosphonooxy)methyl]cyclopentyl]-[1R-(1α,2β,3β,4α)]]
ser-256 phosphorylation of hepatic FoxO1 (FoxO1): increased
inhibition of PKC-ζ (PKC-ζ): not inhibited
